Where two headings read alike, the source gives them in different places.
Key:
Type in all cases: in vivo
[1] = test system: Alopecurus myosuroides (ALOMY); test: Pre-emergence herbicidal action against ALOMY; details: scored visually after about 3 weeks, 100% = plants have died
How it was run: (§1)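 Application rates ran to 320 g/ha or lower, with several dosages tested on the same weeds. The compound, as wettable powder or emulsion concentrate, is sprayed pre-emergence onto soil over sown seeds; greenhouse growth follows, and effect is rated visually after roughly 3 weeks.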

[2] = test system: Amaranthus retroflexus (AMARE); test: Pre-emergence herbicidal action against AMARE; details: visual scoring after about 3 weeks vs untreated controls
How it was run: as §1

Avena fatua (AVEFA) [3] = test: Pre-emergence herbicidal action against AVEFA; details: visual scoring after about 3 weeks vs untreated controls
How it was run: as §1

[4] = test system: Echinochloa crus-galli (ECHCG); test: Pre-emergence herbicidal action against ECHCG
How it was run: as §1

Lolium rigidum (LOLRI) [5] = test: Pre-emergence herbicidal action against LOLRI
How it was run: as §1

[6] = test system: Matricaria inodora (MATIN); test: Pre-emergence herbicidal action against MATIN; details: dosage 320 g/ha
How it was run: as §1

[7] = test system: Pharbitis purpurea (PHBPU); test: Pre-emergence herbicidal action against PHBPU; details: dosage 320 g/ha
How it was run: as §1

[8] = test system: Polygonum convolvulus (POLCO); test: Pre-emergence herbicidal action against POLCO
How it was run: as §1

Setaria viridis (SETVI) [9] = test: Pre-emergence herbicidal action against SETVI
How it was run: as §1

[10] = test system: Verconica persica (VERPE); test: Pre-emergence herbicidal action against VERPE
How it was run: as §1

Viola tricolor (VIOTR) [11] = test: Pre-emergence herbicidal action against VIOTR
How it was run: as §1

[12] = test system: Alopecurus myosuroides (ALOMY); test: Post-emergence herbicidal action against ALOMY; details: visual rating about 3 weeks after treatment vs untreated controls (100% = plants have died, 0% = like control plants)
How it was run: (§2)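 Rates were 320 g/ha or below, applied as aqueous WP/EC spray with 0.5% additive (600 l/ha) onto one-leaf-stage plants. About 3 weeks later in the greenhouse, damage was scored visually against untreated plants on a 0–100% scale, where 100% means plants died.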

[13] = test system: Amaranthus retroflexus (AMARE); test: Post-emergence herbicidal action against AMARE
How it was run: as §2

Avena fatua (AVEFA) [14] = test: Post-emergence herbicidal action against AVEFA; details: visual rating about 3 weeks after treatment
How it was run: as §2

[15] = test system: Echinochloa crus-galli (ECHCG); test: Post-emergence herbicidal action against ECHCG; details: dosage 320 g/ha
How it was run: as §2

Lolium rigidum (LOLRI) [16] = test: Post-emergence herbicidal action against LOLRI
How it was run: as §2

[17] = test system: Matricaria inodora (MATIN); test: Post-emergence herbicidal action against MATIN
Description: Seeds of monocotyledonous and dicotyledonous weeds and crop plants are placed in sandy loam in plastic or organic planting pots, covered with soil and cultivated in a greenhouse under controlled growth conditions. 2 to 3 weeks after sowing, the test plants are treated at the one-leaf stage. The compounds of the invention, formulated in the form of wettable powders (WP) or as emulsion concentrates (EC), are then sprayed onto the green parts of the plants as aqueous suspension or emulsion with addition of 0.5% additive at a water application rate of 600 l/ha (converted). After the test plants have been kept in the greenhouse under optimum growth conditions for about 3 weeks, the activity of the preparations is rated visually in comparison to untreated controls. For example, 100% activity=the plants have died, 0% activity=like control plants.
Tables B1 to B13 below show the effects of selected compounds of the general formula (I) according to Table 1 on various harmful plants and at an application rate corresponding to 320 g/ha or lower, which were obtained by the experimental procedure mentioned above. The appendices “a”, “b” and “c” give differentiation by dosage used with otherwise the same harmful plants tested.

[18] = test system: Pharbitis purpurea (PHBPU); test: Post-emergence herbicidal action against PHBPU; details: dosage 320 g/ha
How it was run: as §2

[19] = test system: Polygonum convolvulus (POLCO); test: Post-emergence herbicidal action against POLCO
How it was run: as §2

Setaria viridis (SETVI) [20] = test: Post-emergence herbicidal action against SETVI
How it was run: as §2

[21] = test system: Verconica persica (VERPE); test: Post-emergence herbicidal action against VERPE
How it was run: as §2

Oryza sativa (ORYSA) = details: crop plant compatibility
How it was run: (§3)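 Percent effect on the crop was judged by eye against untreated controls, where 0% means like control and 100% means dead plants. Plants had been sprayed post-emergence at the one-leaf stage and then kept under optimum greenhouse conditions for about 3 weeks.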

[22] = test system: Abutilon theophrasti (ABUTH); test: Post-emergence herbicidal action against ABUTH; details: 80 g/ha, visual rating about 3 weeks after treatment vs untreated controls (100% = plants have died, 0% = like control plants)
How it was run: as §2

Zea mays (ZEAMX) = test system: Zea mays (ZEAMX)
How it was run: as §3

Viola tricolor (VIOTR) [23] = test: Post-emergence herbicidal action against VIOTR; details: 320 g/ha
How it was run: as §2

[24] = 80 g/ha, visual rating about 3 weeks after treatment vs untreated controls (100% = plants have died, 0% = like control plants)
[25] = 320 g/ha, visual rating about 3 weeks after treatment
[26] = 80 g/ha, effect in comparison to untreated controls

Compound | Pre-emergence action against ALOMY ([1]; 80 g/ha) [%] | Pre-emergence action against ALOMY ([1]; 320 g/ha) [%] | Pre-emergence action against AMARE in % ([2]; 80 g/ha) [%] | Pre-emergence action against AMARE in % ([2]; 320 g/ha) [%] | Pre-emergence action against AVEFA in % (Avena fatua (AVEFA) [3]; 80 g/ha) [%] | Pre-emergence action against AVEFA in % (Avena fatua (AVEFA) [3]; 320 g/ha) [%] | Pre-emergence action against ECHCG in % ([4]; dosage 80 g/ha) [%] | Pre-emergence action against ECHCG in % ([4]; dosage 320 g/ha) [%] | Pre-emergence action against LOLRI in % (Lolium rigidum (LOLRI) [5]; dosage 320 g/ha) [%] | Pre-emergence action against MATIN in % [6] [%] | Pre-emergence action against PHBPU in % [7] [%] | Pre-emergence action against POLCO in % ([8]; dosage 80 g/ha) [%] | Pre-emergence action against POLCO in % ([8]; dosage 320 g/ha) [%] | Pre-emergence action against SETVI in % (Setaria viridis (SETVI) [9]; dosage 80 g/ha) [%] | Pre-emergence action against SETVI in % (Setaria viridis (SETVI) [9]; dosage 320 g/ha) [%] | Pre-emergence action against VERPE in % ([10]; dosage 320 g/ha) [%] | Pre-emergence action against VIOTR in % (Viola tricolor (VIOTR) [11]; 320 g/ha, Viola tricolor) [%] | Post-emergence action against ALOMY in % ([12]; 80 g/ha) [%] | Post-emergence action against AMARE in % [13, 24] [%] | Post-emergence action against SETVI in % (Setaria viridis (SETVI) [20]; dosage 80 g/ha) [%] | further results
COC(=O)[C@H](C)NC(=O)COc1nn(-c2ccccn2)c(-c2ccc(F)nc2)c1Cl [Example I-87] | 90 | 100 | 90 | 100 | 80 | 90 | 100 | 100 | 100 | 90 | 90 | 80 | 90 | 90 | 100 | 90 | 80 | 80 | 80 | 80 | Pre-emergence action against VERPE in % ([10]; dosage 80 g/ha): 80%; Post-emergence action against ALOMY in % ([12]; 320 g/ha): 90%; Post-emergence action against AMARE in % [13, 25]: 80%; Post-emergence action against AVEFA in % (Avena fatua (AVEFA) [14]; 80 g/ha): 80%; Post-emergence action against AVEFA in % (Avena fatua (AVEFA) [14]; 320 g/ha): 90%; Post-emergence action against ECHCG in % [15]: 80%; Post-emergence action against LOLRI in % (Lolium rigidum (LOLRI) [16]; dosage 320 g/ha): 80%; Post-emergence action against MATIN in % ([17]; dosage 320 g/ha): 80%; Post-emergence action against PHBPU in % [18]: 90%; Post-emergence action against POLCO in % ([19]; dosage 80 g/ha): 80%; Post-emergence action against POLCO in % ([19]; dosage 320 g/ha): 80%; Post-emergence action against SETVI in % (Setaria viridis (SETVI) [20]; dosage 320 g/ha): 80%; Post-emergence action against VERPE in % ([21]; 320 g/ha, VERPE): 90%; Post-emergence action against VERPE in % ([21]; dosage 80 g/ha): 80%; Post-emergence action against ORYSA in % (Oryza sativa (ORYSA); [26]): 0%
CC(C)=NOC(=O)[C@@H](C)Oc1nn(-c2ncccc2F)c(-c2ccc(F)nc2)c1Br [Example I-374] | 90 | 100 | 100 | 100 | – | 100 | – | 100 | 100 | 90 | 90 | 80 | 90 | – | 100 | 100 | 100 | 100 | 80 | 90 | Pre-emergence action against LOLRI in % (Lolium rigidum (LOLRI) [5]; dosage 80 g/ha): 80%; Pre-emergence action against VIOTR in % (Viola tricolor (VIOTR) [11]; dosage 80 g/ha): 90%; Post-emergence action against ABUTH in % [22]: 80%; Post-emergence action against AVEFA in % (Avena fatua (AVEFA) [14]; 80 g/ha): 90%; Post-emergence action against LOLRI in % (Lolium rigidum (LOLRI) [16]; dosage 80 g/ha): 90%; Post-emergence action against MATIN in % ([17]; dosage 80 g/ha): 80%; Post-emergence action against VERPE in % ([21]; dosage 80 g/ha): 80%; Post-emergence action against ORYSA in % (Oryza sativa (ORYSA); 20 g/ha, effect vs untreated controls): 10%; Post-emergence action against ZEAMX in % (crop plant compatibility) (Zea mays (ZEAMX); 20 g/ha, ZEAMX, effect in comparison to untreated controls): 10%
C[C@@H](Oc1nn(-c2ccccn2)c(-c2ccc(F)nc2)c1Cl)C(=O)NCC(=O)O [Example I-338] | 100 | 100 | 100 | 100 | 90 | 90 | 90 | 100 | 100 | 80 | 80 | 100 | 100 | 100 | 100 | 100 | 100 | – | 80 | 90 | Pre-emergence action against LOLRI in % (Lolium rigidum (LOLRI) [5]; dosage 80 g/ha): 100%; Pre-emergence action against VIOTR in % (Viola tricolor (VIOTR) [11]; dosage 80 g/ha): 100%; Post-emergence action against ALOMY in % ([12]; 320 g/ha): 90%; Post-emergence action against AMARE in % [13, 25]: 80%; Post-emergence action against AVEFA in % (Avena fatua (AVEFA) [14]; 320 g/ha): 90%; Post-emergence action against ECHCG in % [15]: 80%; Post-emergence action against LOLRI in % (Lolium rigidum (LOLRI) [16]; dosage 320 g/ha): 90%; Post-emergence action against MATIN in % ([17]; dosage 320 g/ha): 90%; Post-emergence action against POLCO in % ([19]; dosage 80 g/ha): 80%; Post-emergence action against POLCO in % ([19]; dosage 320 g/ha): 80%; Post-emergence action against SETVI in % (Setaria viridis (SETVI) [20]; dosage 320 g/ha): 90%; Post-emergence action against VERPE in % ([21]; 320 g/ha, VERPE): 90%; Post-emergence action against VIOTR in % (Viola tricolor (VIOTR) [23]): 80%; Post-emergence action against ORYSA in % (Oryza sativa (ORYSA); [26]): 0%; Post-emergence action against ZEAMX in % (Zea mays (ZEAMX); crop plant compatibility, 80 g/ha, effect vs untreated controls): 0%
